Test results: patent US20040121965A1, “Method of treating resistant tumors” (Wyeth Holdings Corporation, priority 2002, published 2004)
Read-outs that look alike come from different tables or passages of the source. Marks after values point to notes of the source that are not given here.

Columns and labels:
S1 = experiment: Cell survival assay (SRB), S1; assay type: cell-based; details: Homo sapiens; S1 parental; Table 5; read-out: S1 IC50, nM (N)
Excerpt: (§1) Cells lines with previously known mechanisms of resistance. […] Res. 8: 207-218,1996); KB-3-1 (parental derived from an epidermoid carcinoma), KB-8.5, KB-V1 (Akiyama S-I, Fojo A, Hanover J A, Pastan I, Gottesman M M. Isolation and genetic characterization of human KB cell lines resistant to multiple drugs. Somatic Cell Mol. Gen., 11: 117-126,1985; Shen D-W, Cardarelli C, Hwang J, Cornwell M, Richert N, Ishii S, Pastan I, Gottesman MM. […] J. Biol. Chem., 261: 7762-7770, 1986); and HL-60 (parental derived from human leukemia) and HL60/AR (McGrath T., Center M. S. Adriamycin resistance in HL60 cells in the absence of detectable P-glycoprotein. Biochem. Res. Commun., 145:1171-1176,1987); A549 and A549.EpoB40 (He L., Yang C.-P.H., Horwitz S. B. Mutations in p-tubulin map to domains involved in regulation of microtubule stability in epothilone-resistant cell lines. Molecular Cancer Therapeutics. 1: 3-10, 2001). HCT-15 human colon carcinoma and DLD-1 human colon carcinoma are obtained from American Tissue Culture Collection. The MX-1W carcinoma is a Wyeth variant orginally obtained as MX-1 breast carcinoma from the National Cancer Institute. Cell lines selected for resistance to Representative Example 129. KB-3-1 cells are selected for resistance to Example 129 by chronically exposing cells to increasing concentrations of Example 129.
(§2) 2.2. Cell Survival Assay: Standard Pharmacological Test Procedure. The concentration of candidate inhibitor required to inhibit 50% of cell growth (IC50) is done according to previously reported methods. […] Compounds are serially diluted into media as 2× stocks and 100 μl added to cells in duplicate. Compounds are incubated with cells for 3 days. At the end of the incubation period the sulforhodamine B (SRB) assay, which measures protein content as an assessment of cell survival, is performed as described previously (Skehan P, Storeng R, Scudiero D, Monks A, McMahon J, Vistica D, Warren J T, Bokesch H, Kenney S, Boyd MR. New calorimetric cytotoxicity assay for anticancer-drug screening. J Natl Cancer Inst 1990 Jul 4;82(13):1107-12) with some modification as follows. For KB-3-1 cells with 20% FCS, media is gently decanted and replaced with 200 μl of serum-free media mixed with cold 50% TCA for a final concentration of 10% TCA. The plates are incubated for 1 hr at 4° C., followed by washing 5 times in cold distilled water, then air dried overnight. The fixed cells are stained for 10 min with 80 μl of 0.04% SRB solution prepared in 1% glacial acetic acid. Stain is discarded and plates washed 5 times in 1% glacial acetic acid, then air-dried until completely dry. Stained cell product is dissolved in 150 μl of 10 mM Trizma Base and placed on a shaker for 20 minutes until fully dissolved. Absorbance is read on a Victor V multi-label plate reader (Perkin Elmer, Gaithersburg, Md.).

KB-3-1 = experiment: Cell survival assay (SRB), KB-3-1; assay type: cell-based, human
Method in brief: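 Growth inhibition (IC50) is derived from SRB-measured protein content after a 3-day, duplicate exposure to serially diluted compound.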

HL60 = experiment: Cell survival assay (MTS), HL60; assay type: cell-based; details: Homo sapiens, HL-60; HL60 parental; Table 5; read-out: HL60 IC50, nM (N)
HL60/AR (MRP1) = experiment: Cell survival assay, HL60/AR (MRP1); details: for IC50: Homo sapiens, HL-60/AR, read-out: HL60/AR (MRP1) IC50, nM (N); for RR, relative resistance: IC50 HL60/AR / IC50 HL60
Excerpt: as §1, §2
(§3) J. Cell Science,113: 2011-2021, 2000). It was unknown whether the hemiasterlin family of peptides interact with these drug pumps.

S1-M1-3.2 (MXR) = experiment: Cell survival assay, S1-M1-3.2 (MXR); assay type: cell-based, human; details: for IC50: Homo sapiens, S1-M1-3.2, MXR over-expression, Table 5, read-out: S1-M1-3.2 (MXR) IC50, nM (N); for RR, relative resistance: IC50 S1-M1-3.2 / IC50 S1
Excerpt: as §1, §2, §3

KB-HTI-4.0 = experiment: Cell survival assay, KB-3-1 line made resistant to Example 129 (KB-HTI-4.0); assay type: cell-based, human; details: for IC50: KB-3-1 line made resistant to Example 129, Table 8, read-out: KB-HTI-4.0 IC50
KB-8-5 (MDR1+) = experiment: Cell survival assay (SRB), KB-8-5 (MDR1+); details: for IC50: Homo sapiens; for RR, relative resistance: IC50 KB-8-5 / IC50 KB-3-1; for resistance of KB-8-5 cells: KB-8-5 (KB-85) vs KB-3-1, in vitro
KB-V1 (MDR1++) = experiment: Cell survival assay (SRB), KB-V1 (MDR1++); details: for IC50: Homo sapiens; for RR, relative resistance: IC50 KB-V1 / IC50 KB-3-1
A549.EpoB40 = assay type: cell-based; details: vs A549; below 1 = sensitive
Excerpt: as §1
as §2, with “Stained cell product is dissolved in 150 μl of 10 mM Trizma Base and placed on a shaker for 20 minutes until fully dissolved.” left out

tumor cell lines = experiment: cells; assay type: cell-based; details: HL60/AR (MRP1) or S1-M1-3.2 (MXR)
Excerpt: as §1, §2

KB-PTX-15+099 = experiment: Cell survival assay, KB-PTX-15+099 (paclitaxel-resistant, non-MDR); assay type: cell-based, human
[1] = tested on: Human Melanoma Carcinoma Lox
MX-1W tumor = experiment: Growth of tumors in nude mice, MX-1W xenograft; assay type: in vivo
Excerpt: (§4) 2.4. Growth of Tumors in Nude Mice.

[2] = tested on: Human Epidermoid Carcinoma KB-3-1; experiment: Growth of tumors in nude mice, KB-3-1 xenograft; assay type: in vivo; details: KB-3-1; vincristine 1 mg/kg IP, days 1,5,9
Procedure: as §4
In these experiments, xenografts are implanted subcutaneously into the flanks of nude mice. […] Relative tumor mass compared to controls are assessed during the 21-day post-staging period.
Groups of 5 female nu/nu mice are injected with 1.5×10^6 KB-3-1 (A) or Lox cells (B). […] Relative tumor growth is determined during the experiment and % T/C calculated. Statistical analyses are Student's t-test of treated time points vs. vehicle (*, P<0.05; **, P<0.01)

KB-8.5 tumor = experiment: Growth of tumors in nude mice, KB-8-5 xenograft; assay type: in vivo; details: vincristine 1 mg/kg IP, days 1,5,9
Excerpt: as §4

DLD-1 tumor = experiment: Growth of tumors in nude mice, DLD-1 xenograft; assay type: in vivo; details: vincristine 1 mg/kg IP, days 1,5,9
Excerpt: as §4

HCT-15 tumor = experiment: Growth of tumors in nude mice, HCT-15 xenograft; assay type: in vivo; details: vincristine 1 mg/kg IP, days 1,5,9
Excerpt: as §4

[3] = tested on: human carcinoma xenografts; experiment: Growth of tumors in nude mice, several xenograft models and tolerated dose; assay type: in vivo; details: DLD-1, MX-1W or HCT-15 tumors; at or near the MTD
Excerpt: as §4

[4] = Homo sapiens, KB-3-1 parental, Table 3, read-out: KB-3-1 IC50, nM (N)
[5] = Homo sapiens, KB-3-1 parental, Table 8, read-out: KB-3-1 IC50
[6] = MDR1, read-out: KB-8-5 (MDR1+) IC50, nM (N)
[7] = read-out: KB-V1 (MDR1++) IC50, nM (N)
[8] = Lox, vincristine 1 mg/kg IP, days 1,5,9
[9] = MX-1W, vincristine 1 mg/kg IP, days 1,5,9

Compound | IC50 (S1) | IC50 (KB-3-1; [4]) | IC50 (KB-3-1; [5]) | IC50 (HL60) | IC50 (HL60/AR (MRP1)) | RR, relative resistance (HL60/AR (MRP1)) | IC50 (S1-M1-3.2 (MXR)) | RR, relative resistance (S1-M1-3.2 (MXR)) | IC50 (KB-HTI-4.0; Homo sapiens) | (RR) relative resistance vs. parental cells (KB-HTI-4.0; KB-HTI-4.0 vs KB-3-1) | IC50 (KB-8-5 (MDR1+); [6]) | RR, relative resistance (KB-8-5 (MDR1+); Table 3) | IC50 (KB-V1 (MDR1++); [7]) | RR, relative resistance (KB-V1 (MDR1++); Table 3) | resistance of A549.EpoB40 cells (A549.EpoB40) | resistance of KB-8-5 cells (KB-8-5 (MDR1+)) | other results
O=C1c2c(O)ccc(O)c2C(=O)c2c(NCCNCCO)ccc(NCCNCCO)c21 [mitoxantrone] | 31 nM | 10.3 ± 6.9 nM | 10 ± 6.5 nM | 5.9 nM | 190 nM | 32.4 | 16600 nM | 535 | 430 ± 159 nM | (43) | 19.1 nM | 1.9 | > 3000 nM | >291 |  |  | 
epothilone B |  |  |  |  |  |  |  |  |  | (4) |  |  |  |  | 107 fold |  | IC50 (KB-3-1; KB-3-1 parental, Table 8, read-out: KB-3-1 IC50): 0.63 ± 0.08 nM; IC50 (KB-HTI-4.0): 2.37 ± 2.2 nM
COc1cccc2c1C(=O)c1c(O)c3c(c(O)c1C2=O)C[C@@](O)(C(=O)CO)C[C@@H]3O[C@H]1C[C@H](N)[C@H](O)[C@H](C)O1 [adriamycin] | 221 ± 113 nM | 43.3 ± 32 nM | 33.9 ± 21.2 nM | 24.2 ± 6.8 nM | > 3000 nM | >124 | 11500 ± 367 nM | 52 | 552 ± 111 nM | (16) | 658 ± 483 nM | 15 | 11500 ± 9670 nM | 265 |  | 15 fold | 
CC[C@]1(O)C[C@@H]2CN(CCc3c([nH]c4ccccc34)[C@@](C(=O)OC)(c3cc4c(cc3OC)N(C)[C@H]3[C@@](O)(C(=O)OC)[C@H](OC(C)=O)[C@]5(CC)C=CCN6CC[C@]43[C@@H]65)C2)C1 [vinblastine] | 6.5 nM |  |  | 0.5 nM | 2 nM | 3.7 | 12.7 nM | 1.9 | 6.19 ± 1.26 nM |  |  | 37 |  | 1848 | 0.2 fold | 37 fold | resistance detected in cells over-expressing MRP1 or MXR (tumor cell lines): no resistance; IC50 (KB-3-1; Homo sapiens, KB 3-1, 72 h, amount of drug needed to kill 50% of cells after three days continuous exposure, Table 11, read-out: IC50 in parental cell line KB-3-1): 0.8 nM; IC50 (KB-3-1; Homo sapiens, KB 3-1, KB-3-1, Table 6, read-out: KB-3-1 IC50): 0.703 ± 0.097 nM; IC50 (KB-3-1; Homo sapiens, KB 3-1, KB-3-1 parental, Table 3, read-out: KB-3-1 IC50, nM (N)): 0.79 ± 0.5 nM; IC50 (KB-3-1; Homo sapiens, KB 3-1, KB-3-1 parental, Table 8, read-out: KB-3-1 IC50): 0.73 ± 0.03 nM; IC50 (KB-PTX-15+099; Homo sapiens, KB-PTX-15+099, Table 6, read-out: KB-PTX-15+099 IC50): 0.192 ± 0.022 nM; Average Relative Resistance (RR) (KB-PTX-15+099; IC50 KB-PTX-15+099 / IC50 KB-3-1, less than 1 = increased sensitivity): (0.27); increased sensitivity of KB-PTX-15+099 cells (KB-PTX-15+099; vs KB-3-1): 3.7 fold; (RR) relative resistance vs. parental cells (KB-HTI-4.0): (9); resistance of KB-3-1-derived cell lines selected with Example 129 (KB-HTI-4.0; vs KB-3-1): 9 fold; Activity in nude mice animal model (% T/C @ MTD on days 11-15) LOX ([1]; staged LOX xenograft, at MTD ('<': MTD not achieved), days 11-15): 9%; Activity in nude mice animal model (% T/C @ MTD on days 11-15) MX-1W (MX-1W tumor; staged MX-1W xenograft, at MTD, days 11-15): 64%; IC50 (KB-8-5 (MDR1+); MDR1, read-out: KB-8-5 (MDR1+) IC50, nM (N), KB-8-5, moderate MDR1 expression, Table 3): 29.2 ± 22 nM; IC50 (KB-V1 (MDR1++); read-out: KB-V1 (MDR1++) IC50, nM (N), KB-V1, high MDR1 expression, Table 3): 1460 ± 1020 nM
CC[C@]1(O)C[C@H]2CN(CCc3c([nH]c4ccccc34)[C@@](C(=O)OC)(c3cc4c(cc3OC)N(C=O)[C@H]3[C@@](O)(C(=O)OC)[C@H](OC(C)=O)[C@]5(CC)C=CCN6CC[C@]43[C@@H]65)C2)C1 [vincristine] |  |  |  |  |  |  |  |  |  |  |  |  |  |  |  |  | % T/C on day 7 [2]: 15** %; % T/C on day 14 [2]: 12** %; % T/C on day 21 [2]: 17** %; % T/C on day 7 [1, 8]: 13** %; % T/C on day 12 [1, 8]: 3** %; % T/C on day 6 (KB-8.5 tumor): 71%; % T/C on day 14 (KB-8.5 tumor): 85%; % T/C on day 21 (KB-8.5 tumor): 81%; % T/C on day 7 (DLD-1 tumor): 113%; % T/C on day 14 (DLD-1 tumor): 119%; % T/C on day 21 (DLD-1 tumor): 177%; % T/C on day 7 (MX-1W tumor; [9]): 65%; % T/C on day 14 (MX-1W tumor; [9]): 61%; % T/C on day 9 (HCT-15 tumor): 91%; % T/C on day 13 (HCT-15 tumor): 81%; % T/C on day 17 (HCT-15 tumor): 95%; % T/C on day 21 (HCT-15 tumor): 107%; response of tumors [3]: no response
